Paper PMC8025677 (Cell, 2020)
Read-outs that look alike come from different tables or passages of the source.

What was measured:
[1] = system: electrically evoked 5-HT release in dorsal striatum slices; design: species or system mouse
iSeroSnFR = type: binding, Thermoanaerobacter sp. X513; conditions: for Kd: read-out: apparent Kd, pH 7.4
hSERT = hSERT (Homo sapiens, UniProt P31645); assay: oscillating stimulus transporter assay; type: cell-based
[2] = molecular target: iAChSnFR (early version; iAChSnFR0.6 in Figure S2A); conditions: n = 3

Chain of hSERT (P31645 whole entry): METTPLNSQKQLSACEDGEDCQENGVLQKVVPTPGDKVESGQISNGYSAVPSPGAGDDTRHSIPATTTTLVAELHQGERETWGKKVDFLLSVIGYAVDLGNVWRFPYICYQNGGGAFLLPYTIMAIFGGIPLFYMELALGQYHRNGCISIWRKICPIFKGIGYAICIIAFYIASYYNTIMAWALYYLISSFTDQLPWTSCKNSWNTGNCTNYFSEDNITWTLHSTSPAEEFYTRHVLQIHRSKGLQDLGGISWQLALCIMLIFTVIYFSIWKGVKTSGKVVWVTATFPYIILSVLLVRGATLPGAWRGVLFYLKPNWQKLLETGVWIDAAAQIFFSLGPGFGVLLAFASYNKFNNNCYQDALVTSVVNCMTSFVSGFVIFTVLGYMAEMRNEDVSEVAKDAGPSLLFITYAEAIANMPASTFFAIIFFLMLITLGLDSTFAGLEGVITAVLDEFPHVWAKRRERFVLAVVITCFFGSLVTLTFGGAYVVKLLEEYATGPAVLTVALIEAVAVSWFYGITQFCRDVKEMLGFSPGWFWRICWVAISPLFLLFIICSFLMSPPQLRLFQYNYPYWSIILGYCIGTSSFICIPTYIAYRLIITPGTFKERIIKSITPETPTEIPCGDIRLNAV

**Q.** For `NC1=N[C@H](O)[C@H]2[C@H]3O[C@]4(O)O[C@@H]([C@@H](O)[C@@]2(N1)[C@@H]4O)[C@]3(O)CO` [tetrodotoxin], which “effect on electrically evoked fluorescence transients” value [1] is on record?
**A.** completely abolished

**Q.** Which Kd (iSeroSnFR) does the source give for `NCCc1ccc(O)c(O)c1` [dopamine] here?
**A.** 5.6 mM

**Q.** With `CNC(C)Cc1ccc2c(c1)OCO2` (stereo not shown) [MDMA, 3,4-methyl enedioxy methamphetamine] as the compound, how does the “enhancement in 5-HT efflux” value (hSERT) read?
**A.** 2 fold

**Q.** `CCCCCCCCCCCCCC(=O)O[C@@H]1[C@@H](C)[C@@]2(O)[C@@H](C=C(CO)C[C@]3(O)C(=O)C(C)=C[C@@H]23)[C@@H]2C(C)(C)[C@]12OC(C)=O` [PMA, phorbol 12-myristate 13-acetate] was tested. Which “effect on 5-HT transport rate” value (hSERT; 400 nM) did it give?
**A.** slow decrement in transport rate over ~40 minutes

**Q.** `N#Cc1ccc2[nH]cc(CCCCN3CCN(c4ccc5oc(C(N)=O)cc5c4)CC3)c2c1` [vilazodone] was tested. Which “effect on 5-HT transport” value (hSERT; concentration not given) did it give?
**A.** caused transport function to rapidly disappear

**Q.** What about the “recovery of transport after washout” value (hSERT; washouts of >20 minutes) of the same compound?
**A.** did not return to baseline

**Q.** With `NCCc1c[nH]c2ccccc12` [tryptamine] as the compound, how does the “times weaker affinity than 5-HT” value (iSeroSnFR; purified iSeroSnFR) read?
**A.** 8 times

**Q.** What about the Kd (iSeroSnFR; purified iSeroSnFR 100 nM) of the same compound?
**A.** 2.4 mM

**Q.** How did the “effect on 5-HT transport” value (hSERT) turn out when `COC(=O)[C@H]1[C@@H](OC(=O)c2ccccc2)C[C@@H]2CC[C@H]1N2C` [cocaine] was run?
**A.** reduced

**Q.** Which Kd [2] does the source give for `NCCc1c[nH]c2ccc(O)cc12` [5-HT, serotonin (5-hydroxytryptamine)] here?
**A.** > 1 mM
